From PubChem BioAssay (NCI)
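Assay format: 96-well plates, 48-hour exposure. GI50 = concentration required for 50% inhibition of growth. TGI is the concentration that stops growth completely.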 Peptide text beside a SMILES is read from it. * marks the point of attachment. OSu = O=C1CCC(=O)N1O*; OBn = c1ccc(CO*)cc1; Bn = c1ccc(C*)cc1

Key:
Test in all cases: NCI tumour cell line growth inhibition, 48 h
BT-549 breast = system: BT-549 breast
OVCAR-5 ovarian = system: OVCAR-5 ovarian
HT29 colon = system: HT29 colon
HL-60(TB) leukemia = system: HL-60(TB) leukemia
U251 CNS = system: U251 CNS
MDA-MB-231 breast = system: MDA-MB-231 breast
UO-31 renal = system: UO-31 renal
MDA-MB-435 = system: MDA-MB-435
KM12 colon = system: KM12 colon
SNB-75 CNS = system: SNB-75 CNS

Structure (SMILES)	TGI (BT-549 breast) [µM]	TGI (OVCAR-5 ovarian) [µM]	TGI (HT29 colon) [µM]	TGI (HL-60(TB) leukemia) [µM]	TGI (U251 CNS) [µM]	TGI (MDA-MB-231 breast) [µM]	TGI (UO-31 renal) [µM]	TGI (MDA-MB-435) [µM]	TGI (KM12 colon) [µM]	TGI (SNB-75 CNS) [µM]	GI50 (HT29 colon) [µM]	GI50 (SNB-75 CNS) [µM]	GI50 (U251 CNS) [µM]	GI50 (UO-31 renal) [µM]	GI50 (KM12 colon) [µM]	GI50 (BT-549 breast) [µM]	GI50 (OVCAR-5 ovarian) [µM]	GI50 (HL-60(TB) leukemia) [µM]	GI50 (MDA-MB-231 breast) [µM]
Cc1nc2sccn2c1C(=O)OCCOCCOCCOCCOC(=O)c1c(C)nc2sccn12	> 100	> 100	> 100	34	> 100	> 100	> 100	> 100	> 100	–	–	–	–	–	–	–	–	–	–
O=c1c(S(=O)(=O)Oc2ccccc2)coc2cc(F)ccc12	> 100	> 100	> 100	–	> 100	> 100	> 100	> 100	> 100	> 100	–	–	–	–	–	–	–	–	–
C/C(NC(=O)c1ccccc1)=C(/C(=O)c1ccccc1)[C@@H]1OC(C)(C)O[C@@H]1[C@H]1COC(C)(C)O1	82.4	> 100	86.3	43.8	> 100	> 100	30.1	39.9	> 100	–	–	–	–	–	–	–	–	–	–
CCCN(CCC)c1c([N+](=O)[O-])cc(C(=O)N(C)C)cc1[N+](=O)[O-]	–	> 100	> 100	86.8	> 100	–	> 100	–	> 100	31.5	–	–	–	–	–	–	–	–	–
C/C(=N\n1c(Cc2ccccc2)n[nH]c1=O)c1ccc([N+](=O)[O-])cc1	> 100	> 100	> 100	> 100	> 100	> 100	> 100	> 100	> 100	–	–	–	–	–	–	–	–	–	–
CC(C)(Oc1ccc(C(=O)c2ccc(Cl)cc2)cc1Cl)C(=O)N1CCN(c2ccccc2)CC1	–	> 100	> 100	> 100	> 100	–	> 100	–	> 100	–	–	–	–	–	–	–	–	–	–
CCCC1C(C#N)(C#N)C(C#N)=C(N)C1(C)C(C)=O (stereo not drawn)	–	> 100	> 100	> 100	> 100	> 100	> 100	> 100	> 100	96.9	–	–	–	–	–	–	–	–	–
CCCCNCC(O)c1cc(-c2ccc(C(F)(F)F)cc2)nc(-c2ccc(C(F)(F)F)cc2)c1 (stereo not drawn)	–	–	3.62	–	3.39	–	3.08	–	3.6	3.6	1.84	1.91	1.73	1.44	1.81	–	–	–	–
Oc1ccccc1C=Nc1ccccc1N=Cc1ccccc1O	–	–	> 100	81.5	> 100	–	–	–	> 100	–	–	–	–	–	–	–	–	–	–
O=C1C=C(NCCc2cc(Br)c(O)c(Br)c2)C(=O)c2[nH]cnc21	–	67.2	80.8	–	> 100	67.9	> 100	29.3	> 100	69.1	–	–	–	–	–	–	–	–	–
Clc1ccc(-c2nn3c(C45CC6CC(CC(C6)C4)C5)nnc3s2)cc1	–	> 100	> 100	> 100	> 100	> 100	> 100	> 100	> 100	> 100	–	–	–	–	–	–	–	–	–
O=C(NNCc1ccccc1O)c1ccccc1O	–	96.3	> 100	4.17	> 100	> 100	16.5	> 100	> 100	> 100	–	–	–	–	–	–	–	–	–
c1ccc2nn(C3CCCCO3)nc2c1 (stereo not drawn)	> 100	> 100	> 100	–	> 100	> 100	> 100	> 100	> 100	> 100	–	–	–	–	–	–	–	–	–
Cc1ccc(Nc2ccc(Nc3ccc(C)cc3S(=O)(=O)O)c3c2C(=O)c2ccccc2C3=O)c(S(=O)(=O)O)c1	–	–	–	> 100	> 100	–	> 100	–	> 100	> 100	–	–	–	–	–	–	–	–	–
COC(=O)C(N)CCCC(N)C(=O)NC(C)C(=O)NC(CCC(=O)NCCCNc1ccc([N+](=O)[O-])c2[nH]c3ccccc3c(=O)c12)C(N)=O (stereo not drawn)	25.7	22.7	–	–	18.4	28.8	13.8	17.6	19.1	21.6	–	–	–	–	–	–	–	–	–
COc1c(Cl)c(Cl)c(OC)c2c1C(=O)C=CC2=O	–	> 100	87.2	5.09	40.4	–	31.7	–	32.2	80	–	–	–	–	–	–	–	–	–
CC1(CO)C(=O)OC12CCCCC2 (stereo not drawn)	–	–	> 100	> 100	–	–	> 100	–	> 100	> 100	–	–	–	–	–	–	–	–	–
CC(C)(C)OC(=O)N1C/C=C\C(=O)C2(OCCO2)c2ccccc21	51.4	> 100	42	–	> 100	40.8	43.1	34	> 100	99.2	–	–	–	–	–	–	–	–	–

Structure (SMILES)	TGI (BT-549 breast) [µM]	TGI (OVCAR-5 ovarian) [µM]	TGI (HT29 colon) [µM]	TGI (HL-60(TB) leukemia) [µM]	TGI (U251 CNS) [µM]	TGI (MDA-MB-231 breast) [µM]	TGI (UO-31 renal) [µM]	TGI (MDA-MB-435) [µM]	TGI (KM12 colon) [µM]	TGI (SNB-75 CNS) [µM]	GI50 (HT29 colon) [µM]	GI50 (SNB-75 CNS) [µM]	GI50 (U251 CNS) [µM]	GI50 (UO-31 renal) [µM]	GI50 (KM12 colon) [µM]	GI50 (BT-549 breast) [µM]	GI50 (OVCAR-5 ovarian) [µM]	GI50 (HL-60(TB) leukemia) [µM]	GI50 (MDA-MB-231 breast) [µM]
CC(C)CC(NC(=O)C(N)CCC(=O)OCc1ccccc1)C(=O)NC(COCc1ccccc1)C(=O)NC(Cc1ccccc1)C(=O)ON1C(=O)CCC1=O (stereo not drawn) (H-E(OBn)LS(Bn)F-OSu; configuration not given here)	–	66.9	> 100	–	68.5	40	59	> 100	> 100	> 100	–	–	–	–	–	–	–	–	–
Cc1cnc2[nH]c(-c3cccc(Cl)c3)cc(=O)c2c1	> 100	> 100	–	0.609	92.2	1.46	> 100	–	> 100	36.2	–	–	–	–	–	–	–	–	–
Cc1nc2ccccc2cc1C[N+]12CN3CN(CN(C3)C1)C2	40	57.8	60.8	–	28.2	43.1	57.4	49.3	45.8	35.6	–	–	–	–	–	–	–	–	–
CCOC(=O)CN(Cc1ccccc1)Cc1c(C(=O)c2ccccc2)c2ccccc2n1C(=O)c1ccccc1	–	> 100	> 100	–	> 100	–	> 100	–	> 100	> 100	–	–	–	–	–	–	–	–	–
COc1cc([C@@H]2c3cc4c(cc3[C@@H](Nc3ccc(NC(=O)c5cc(NC(=O)c6cc([N+](=O)[O-])cn6C)cn5C)cc3)[C@H]3COC(=O)[C@H]23)OCO4)cc(OC)c1O	> 100	99.6	98.4	11.3	26.2	> 64	> 53	–	61.8	37	–	–	–	–	–	–	–	–	–
CC1CN=C(N(C)C(=O)Nc2ccc(Cl)c(Cl)c2)S1 (stereo not drawn)	–	89.9	> 100	57.1	> 100	> 100	> 100	–	> 100	> 100	–	–	–	–	–	–	–	–	–
O=c1cc2cc(O)[nH]c(=O)c2c(O)[nH]1	–	> 100	> 100	> 100	> 100	–	> 100	–	> 100	> 100	–	–	–	–	–	–	–	–	–
COC1=CCC2=C(CCN(C(=O)C3CCC3)C2Cc2ccc(OC)c(O)c2)C1 (stereo not drawn)	–	92	43.8	51.5	> 100	> 100	–	10.5	> 100	35.9	–	–	–	–	–	–	–	–	–
CC(=O)OC1C(O)C(C)OC(OC(=O)C2CCC3C(C2)OC2(CC(OC(=O)/C=C/c4ccccc4)C(C)CO2)C32CO2)C1OC1OC(C)C(O)C(O)C1O (stereo not drawn)	–	1.24	0.576	0.579	0.12	–	33.2	–	0.144	0.135	–	–	–	–	–	–	–	–	–
Cc1oc2c(C)c3oc(=O)cc(C)c3cc2c1CN	–	> 100	> 100	> 100	74.8	–	> 100	–	> 100	> 100	–	–	–	–	–	–	–	–	–
Cc1ccsc1/C=N/Nc1ccccn1	> 100	> 100	> 100	–	> 100	> 100	> 100	> 100	> 100	> 100	–	–	–	–	–	–	–	–	–
C1=C[C@]2(CCC13OCCO3)COc1ccccc12	–	> 100	80.4	38.4	> 100	> 100	> 100	> 100	75.5	> 100	–	–	–	–	–	–	–	–	–
COc1cc(C(CC(OC)OC)=C(C#N)C#N)cc(OC)c1OC	–	> 100	73.4	67.8	91.4	–	> 100	–	60.5	82.2	–	–	–	–	–	–	–	–	–
CCc1cc2c(oc3c4ccccc4ccc23)c(=O)[nH]1	> 10	> 10	> 10	> 10	> 10	–	> 10	> 10	> 10	> 10	–	–	–	–	–	–	–	–	–
NC(CNc1ccc(O)cc1)C(=O)O (stereo not drawn)	–	> 100	> 100	95.7	> 100	–	> 100	–	> 100	> 100	–	–	–	–	–	–	–	–	–
C/C(=C/c1c(C)[nH]c(=O)[nH]c1=O)C(=O)O	–	1370	> 1380	> 1380	> 1370	–	> 1380	–	> 1380	> 1380	–	–	–	–	–	–	–	–	–
CC(CC(C)(C)[N+](C)(C)C)[N+](C)(C)C (stereo not drawn)	> 100	> 100	> 100	> 100	> 100	–	> 100	–	> 100	> 100	–	–	–	–	–	–	–	–	–
COc1ccc(/C=C/C(c2cc(OC)c(OC)c(OC)c2)n2cncn2)cc1O (stereo not drawn)	37.1	72.6	17.2	0.0627	56.4	> 100	–	–	> 100	–	3.68	–	0.0506	–	0.0405	0.0712	4.48	0.0245	3.02
